For 19 compounds, MIC95 results are on record in ChEMBL document CHEMBL1629514, “Synthesis, biological activity, and evaluation of the mode of action of novel antitubercular benzofurobenzopyrans substituted on A ring” (Eur J Med Chem, 2010).

≈ marks a conversion by molar mass, not a printed value.

The test has as its system Mycobacterium tuberculosis. The experiment in a line: Antimycobacterial activity against Mycobacterium bovis BCG after 6 days by Microdilution Resazurin assay. Format: functional. Conditions: variant bovis BCG, 144 h. (In general: Broth dilution looks for growth in wells or tubes with falling amounts of substance.)
In turn, `CC(=O)c1ccc2oc3ccc4c(c3c2c1)CCC(C)(C)O4` returned an MIC95 of more than 340 µM.

In turn, `CC1(C)C=Cc2c(ccc3oc4c(Cl)cccc4c23)O1` showed an MIC95 of more than 350 µM.

In turn, `CC1(C)C=Cc2c(ccc3oc4cc(Br)ccc4c23)O1` registered an MIC95 of 150 µM (≈ 49.4 µg/mL).

For the compound `CC1(C)C=Cc2c(ccc3oc4ccc(Cl)cc4c23)O1`, the MIC95 came out at 100 µM (≈ 28.5 µg/mL).

Compound `CC1(C)C=Cc2c(ccc3oc4cccc(Cl)c4c23)O1` had an MIC95 of more than 350 µM.

Consider `CC1(C)C=Cc2c(ccc3oc4c(O)cccc4c23)O1`, for which the MIC95 was 94 µM (≈ 25 µg/mL).

Compound `CC1(C)C=Cc2c(ccc3oc4cc(O)ccc4c23)O1` registered an MIC95 of 94 µM (≈ 25 µg/mL).

`CC1(C)C=Cc2c(ccc3oc4ccc(O)cc4c23)O1` came in with an MIC95 of 79 µM (≈ 21 µg/mL).

Compound `CC1(C)C=Cc2c(ccc3oc4cccc(O)c4c23)O1` came in with an MIC95 of 94 µM (≈ 25 µg/mL).

As for `CC1(C)CCc2c(ccc3oc4ccc(O)cc4c23)O1`, the MIC95 came out at 140 µM (≈ 37.6 µg/mL).

`COc1cccc2c1oc1ccc3c(c12)C=CC(C)(C)O3` showed an MIC95 of 89 µM (≈ 24.9 µg/mL).

Take `COc1ccc2c(c1)oc1ccc3c(c12)C=CC(C)(C)O3`: the MIC95 is more than 360 µM.

In turn, `COc1ccc2oc3ccc4c(c3c2c1)C=CC(C)(C)O4` displayed an MIC95 of 89 µM (≈ 24.9 µg/mL).

Consider `COc1cccc2oc3ccc4c(c3c12)C=CC(C)(C)O4`, for which the MIC95 came to 89 µM (≈ 24.9 µg/mL).

Compound `COc1ccc2oc3cc4c(cc3c2c1)OC(C)(C)C=C4` returned an MIC95 of 89 µM (≈ 24.9 µg/mL).

For `CC1(C)C=Cc2c(ccc3c2oc2ccc4c(c23)C=CC(C)(C)O4)O1`, the MIC95 was more than 300 µM.

Compound `CC1(C)C=Cc2c(ccc3oc4cc(-c5ccc6c(c5)oc5ccc7c(c56)C=CC(C)(C)O7)ccc4c23)O1` registered an MIC95 of more than 200 µM.

Consider `CC1(C)C=Cc2c(ccc3oc4ccccc4c23)O1`, for which the MIC95 was found to be 100 µM (≈ 25 µg/mL).

With `NNC(=O)c1ccncc1` [ISONIAZID], the MIC95 came to 4.4 µM (≈ 0.603 µg/mL).
